Measurements published in patent publication US20160243176A1, “EXTRACTS FROM PLANTS OF THE MORINGACEAE FAMILY AND METHODS OF MAKING” (RUTGERS, THE STATE UNIVERSITY OF NEW JERSEY, priority 2013, published 2016).

Key:
[1] = Compound stability of MICs in moringa extract stored at 37° C.; assay type: physicochemical; details: 37° C. for 30 days, compared to day 0
[2] = rotoevaporation 1 hour at 50° C., compared to freeze-dried samples
From the text: Drying the 1:5 ratio preparations can be achieved by rotoevaporation, followed by freeze-drying or spray drying. […] Further concentration of MICs and removal of sugars from the extract can also be performed with solid phase-extraction (SPE).

iNOS = assay: LPS-induced iNOS gene expression in RAW 264.7 macrophages; assay type: cell-based; details: 1 and 5 μM; RAW 264.7, LPS
Procedure: (§1) All reagents were supplied from Sigma-Aldrich Co. (St. Louis, Mo.) unless otherwise noted. RAW 264.7 macrophages (ATCC TIB-71) were maintained in Dulbecco's modified Eagle's medium (Caisson, North Logan, Utah) supplemented with 100 U/mL penicillin, 100 μg/mL streptomycin, and 10% fetal bovine serum. Cells were incubated at 37° C. in a 5% CO2 humidified atmosphere and subcultured by cell scraping. For experiments, RAW cells were plated at a density of 4×10^5 cells/mL in 24-well plates. Cells were incubated overnight (18 h), washed with warm 37° C. PBS, and medium was replaced fresh DMEM medium. […] Lipopolysaccharide (1 μg/mL) was added after 2 h incubation with treatments to elicit inflammatory responses. Cells were treated in duplicate or triplicate. After an additional 6 h incubation period, media were collected and cells were washed with PBS prior to collection in TRIzol® Reagent (Ambion, Life Technologies). […]
(§2) Total RNA was extracted from cells according to manufacturer's specifications. […] RNA integrity was evaluated by running about 1 μg of RNA on a 1% agarose gel. […]
(§3) Quantitative PCR amplifications were performed on an ABI 7300 Real-Time PCR System (Applied Biosystems) with the following thermal cycler profile: 2 minutes, 50° C.; 10 minutes, 95° C.; 15 seconds, 95° C.; 1 minute, 60° C. for the dissociation stage; 15 seconds, 95° C.; 1 minutes, 60° C.; and 15 seconds, 95° C. […]

IL-1β = assay: LPS-induced IL-1β gene expression in RAW 264.7 macrophages; assay type: cell-based; details: 1 and 5 μM; RAW 264.7, LPS
Procedure: as §1, §2, §3

IL-6 = assay: LPS-induced IL-6 gene expression in RAW 264.7 macrophages; assay type: cell-based; details: 5 μM; RAW 264.7, LPS
Procedure: as §1, §2, §3

TNF-α [3] = assay: LPS-induced TNF-α gene expression in RAW 264.7 macrophages; assay type: cell-based; details: any of the concentrations tested; RAW 264.7, LPS
Procedure: as §1, §2, §3

TNF-α [4] = assay: TNF-α secretion analysis (ELISA) in RAW 264.7 macrophages; assay type: cell-based, Mouse; details: 5 μM
Procedure: (§4) All reagents were supplied from Sigma-Aldrich Co. (St. Louis, Mo.) unless otherwise noted. RAW 264.7 macrophages (ATCC TIB-71) were maintained in Dulbecco's modified Eagle's medium (Caisson, North Logan, Utah) supplemented with 100 U/mL penicillin, 100 μg/mL streptomycin, and 10% fetal bovine serum. Cells were incubated at 37° C. in a 5% CO2 humidified atmosphere and subcultured by cell scraping. For experiments, RAW cells were plated at a density of 4×10^5 cells/mL in 24-well plates. Cells were incubated overnight (18 h), washed with warm 37° C. PBS, and medium was replaced fresh DMEM medium. […] Lipopolysaccharide (1 μg/mL) was added after 2 h incubation with treatments to elicit inflammatory responses. Cells were treated in duplicate or triplicate. After an additional 6 h incubation period, media were collected and cells were washed with PBS prior to collection in TRIzol® Reagent (Ambion, Life Technologies). Samples were stored at −80° C. prior to processing.
After treatments, 1 mL of media was collected and immediately centrifuged at 13,500 g at 4° C. for 10 minutes. The supernatant was preserved at −80° C. until further processing with the BD OptEIATM Mouse TNF ELISA kit (BD Bioscience, San Jose, Calif.) following the manufacturer's protocol. […] TNF-α levels were quantified using a reference standard curve provided with the kit. Absorbance was read at 450 nm and corrected at 570 nm.

Nitric oxide (NO) = assay: Nitric oxide production analysis (Griess) in RAW 264.7 macrophages; assay type: cell-based; details: 5 μM
Procedure: as §4
After treatments, 1 mL of media was collected and assayed in duplicate following the Griess Reagent System provided by Promega (Promega Corporation; Madison, Wis.). The nitrite standard (0.1 M sodium nitrite) reference curve was built performing a serial dilution (0 to 100 μM). Absorbance was read at 540 nm.

RAW 264.7 macrophages = assay: MTT-based cell viability assay; details: concentrations tested in anti-inflammatory assays
Procedure: The effect of the treatments on cell viability was measured using MTT [3-(4,5-dimethyl-2-thiazolyl)-2,5-diphenyltetrazolium bromide] (TCI, Portland, Oreg.) (Mosmann, 1983). MTT (5 mg/mL) was dissolved in PBS (Cayman Chemical, Ann Arbor, Mich.), filtered through a 0.22 μm membrane and added to treated cells during the last 3-4 hours of treatment. Media were carefully aspirated and cells were dissolved in DMSO. The absorbance was read at 570 nm.

H4IIE rat hepatoma cells = assay: In vitro gluconeogenesis: glucose production; assay type: cell-based; details: HII4E liver cells; for activity on glucose production relative to SF: same concentrations; for IC50: range of 5 concentrations
Procedure: H4IIE rat hepatoma cells (CRL-1548, American Type Culture Collection, Manassas, Va.) were assayed for glucose production as previously described (21). Cell viability was measured by the 3-(4,5-Dimethyl-2-thiazolyl)-2,5-diphenyltetrazolium bromide (MTT; TCI, Portland, Oreg.) assay (22). RNA extraction, cDNA synthesis and qPCR for gene expression of PEPCK and G6P were performed as described above.

NO formation = details: Cheenpracha et al., 2010; read-out: NO inhibition IC50; cited from earlier work
[5] = after 6 days at 37° C.; Franklin et al., 2013; cited from earlier work

| SMILES | degradation of MIC in moringa extract [1] | loss of MIC under rotoevaporation conditions [2] | mRNA expression of iNOS (iNOS) | mRNA expression of IL-1β (IL-1β) | IL-6 gene expression (IL-6) | TNF-α gene expression (TNF-α [3]) | reduction of TNF-α production (TNF-α [4]) | NO formation (Nitric oxide (NO)) | cytotoxicity (MTT cell viability) (RAW 264.7 macrophages) | activity on glucose production relative to SF (H4IIE rat hepatoma cells) | IC50 (NO formation) | IC50 (H4IIE rat hepatoma cells) | degradation of SF [5] | IC50 (H4IIE rat hepatoma cells; Rattus norvegicus) |
| --- | --- | --- | --- | --- | --- | --- | --- | --- | --- | --- | --- | --- | --- | --- |
| C[C@@H]1O[C@@H](Oc2ccc(CN=C=S)cc2)[C@H](O)[C@H](O)[C@H]1O [MIC-1, 4-[(α-L-rhamnosyloxy)benzyl] isothiocyanate] | approximately 80% | No significant loss | significant reduction | significant reduction | decrease IL-6 gene expression significantly | no reduction | 20% | inhibited NO formation | no signs of cytotoxicity | superior activity to SF | 14.4 µM | – | – | – |
| CC(=O)O[C@@H]1[C@@H](O)[C@@H](O)[C@H](Oc2ccc(CN=C=S)cc2)O[C@H]1C [MIC-4, 4-[(4′-O-acetyl-α-L-rhamnosyloxy)benzyl] isothiocyanate] | ~20% | No significant loss | significant reduction | significant reduction | – | no reduction | 27% | inhibited NO formation | no signs of cytotoxicity | superior activity to SF | 2.71 µM | 7 µM | – | – |
| C[S+]([O-])CCCCN=C=S (stereo not drawn) [SF, sulforaphane] | – | – | – | – | – | – | – | – | – | – | – | – | 75% | – |
| CN(C)C(=N)N=C(N)N [metformin, reference compound] | – | – | – | – | – | – | – | – | – | – | – | – | – | 800 µM |
